# Measurements taken from patent US20050009837A1, “Modulators of lipid metabolism and methods of use” (City of Hope, priority 2003, published 2005).
# What was measured:
# [1] = target: T1, LXRβ-RXR heterodimers / SRC-1 (Homo sapiens, UniProt P55055); test: In vitro coactivator recruitment/displacement assay (gel), LXRβ, RXR, GST-SRC-1, 32P-LXRE probe; format: biochemical; conditions: 10 μM
# T1 construct: made in house; host or cells: receptors translated in vitro
# Procedure: This was tested more directly using an in vitro coactivator recruitment/coactivator displacement assay. This assay has the advantage that it is performed with receptors bound to DNA and that it measures a direct interaction between receptor and coactivator with no interference by other proteins that may indirectly stabilize the complex. The assay was performed by mixing in vitro translated LXRα or LXRβ, RXR, 5 μg of purified GST-SRC-1 and a ^32P-labeled LXRE probe with or without 10 μM Clotrimazole according to previously described methods. Wang et al., Mol. Cell 3:543-553, 1999. The complexes then were separated through 5.5% polyacrylamide gels. The probe used represents a DR-4 element derived from the human SREBP-1c promoter (nt 337-361, accession no. AB046200).
# [2] = system: SREBP-1c expression; test: Real-time PCR of SREBP-1c expression in HepG2 cells; format: cell-based, human; conditions: Clotrimazole 10 μM plus T0901317 100 nM, 24 hours
# Procedure: Real time PCR was then performed on cDNA derived from RNA isolated form the treated HepG2 cells as follows. Real time quantitative PCR assays were performed using an Applied Biosystems 7700 sequence detector (Applied Biosystems). Each reaction mixture contained 50 ng cDNA, 1.25 pmol each forward and reverse primer, and […] 2× SYBR Green PCR master mix (Applied Biosystems) in a final volume of 25 μl. The PCR conditions were 50° C. for 2 min, 95° C. for 10 min, and 40 cycles of 95° C. for 15 sec and 60° C. for 1 min. Samples were run in duplicate for each primer pair. Expression of glyceraldehyde-3-phosphate dehydrogenase (GAPDH) was analyzed in parallel as an internal control. Each sample was normalized to GAPDH and is represented in the Figure showing the results as arbitrary units with the expression levels in untreated cells assigned a value of one. The primer sequences are as follows: human SREBP-1c forward [NT] ID NO:1); human SREBP-1c reverse [NT] ID NO:2); human GAPDH forward [NT] ID NO:3) and human GAPDH reverse [NT] ID NO:4).
# [3] = system: NIH3T3-L1 adipocytes; test: Triglyceride content (Nile Red) of NIH3T3-L1 cells differentiated to adipocytes; format: cell-based; conditions: 7 days
# Procedure: NIH 3T3-L1 cells were maintained in growth media consisting of Dulbecco's modified Eagle's medium (DMEM) supplemented with 10% calf bovine serum (CBS), 50 U/ml penicillin G and 50 μg/ml streptomycin sulfate. To induce NIH 3T3-L1 differentiation into adipocytes, confluent cells were transferred from their growth media to DMEM containing 10% fetal bovine serum (FBS), 5 μg/ml insulin, 0.5 mM 3-isobutyl-1-methylxanthine (IBMX) and 1 μM dexamethasone for 7 days. During the differentiation period, cells also optionally received 200 nM T0901317, 7.5 μM Clotrimazole or both.
# NIH3T3-L1 cells were allowed to differentiate for 7 days in the presence of a well-established differentiation cocktail containing dexamethazole (1 μm), IBMX (0.5 mM) and insulin (5 μg/ml) in the absence or presence of T0901317 (200 nM) or Clotrimazole (7.5 μm). The cells then were fixed and stained with Nile Red, which stains triglycerides (TG) green, and DAPI to visualize nuclei (in blue). TG content of the cell reflected increased or decreased lipogenesis.
# T1 sequence (P55055 whole entry): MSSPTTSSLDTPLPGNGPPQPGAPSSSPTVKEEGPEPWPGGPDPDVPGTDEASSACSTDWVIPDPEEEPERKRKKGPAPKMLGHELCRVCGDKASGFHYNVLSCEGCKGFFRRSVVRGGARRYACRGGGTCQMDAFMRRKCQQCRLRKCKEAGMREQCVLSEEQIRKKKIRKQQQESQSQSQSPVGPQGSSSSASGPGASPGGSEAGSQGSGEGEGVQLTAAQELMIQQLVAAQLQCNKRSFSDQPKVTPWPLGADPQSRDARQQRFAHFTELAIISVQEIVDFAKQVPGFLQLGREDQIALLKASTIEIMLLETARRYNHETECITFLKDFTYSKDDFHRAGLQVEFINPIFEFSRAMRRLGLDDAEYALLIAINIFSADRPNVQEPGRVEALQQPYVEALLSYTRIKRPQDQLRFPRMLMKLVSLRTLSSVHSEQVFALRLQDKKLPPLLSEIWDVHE
# T1 sequence (P19793 whole entry partner): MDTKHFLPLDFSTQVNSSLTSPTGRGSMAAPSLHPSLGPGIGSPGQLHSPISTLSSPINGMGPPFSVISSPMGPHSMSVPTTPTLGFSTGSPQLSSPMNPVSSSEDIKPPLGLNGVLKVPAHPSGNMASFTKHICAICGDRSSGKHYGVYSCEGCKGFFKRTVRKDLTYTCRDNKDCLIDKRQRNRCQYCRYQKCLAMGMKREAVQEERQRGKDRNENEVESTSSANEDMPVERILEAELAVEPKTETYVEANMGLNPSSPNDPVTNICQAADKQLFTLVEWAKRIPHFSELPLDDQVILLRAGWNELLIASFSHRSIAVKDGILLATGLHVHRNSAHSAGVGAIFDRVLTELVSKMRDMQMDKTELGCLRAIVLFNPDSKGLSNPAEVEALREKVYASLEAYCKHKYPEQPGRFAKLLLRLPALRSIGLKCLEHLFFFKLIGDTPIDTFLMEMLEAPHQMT
structure (smiles),measurement,setting,value
Clc1ccccc1C(c1ccccc1)(c1ccccc1)n1ccnc1 [Clotrimazole],effect on LXRβ-RXR heterodimers (bound to LXRE probe),[1]; lane 7,no effect
same,interaction of LXRβ-RXR with SRC-1,[1]; lane 8,prevented the interaction with SRC-1
same,SREBP-1c expression compared to T0901317 alone,[2],significantly reduced
same,TG content compared to treatment with T0901317 alone,[3]; Clotrimazole 7.5 μm plus T0901317 200 nM,reduction in TG content
same,TG content compared to differentiation cocktail only,[3]; T0901317 200 nM or Clotrimazole 7.5 μm,decreased
